{
  "source": "patent US11590107B2",
  "about": "“Methods for treating neurological disorders with α1A-AR partial agonists” (CURASEN THERAPEUTICS, INC., priority 2019, dated 2023)",
  "key": {"[1]": {"tested_on": "patients with central autonomic failure", "conditions": "Ramirez et al. 2014, Shibao et al. 2007; cited from earlier work"}, "α1A-AR receptor [2]": {"molecular_target": "T1, α1A-AR receptor (Homo sapiens, UniProt P35348)", "T1 sequence (P35348 1-466)": "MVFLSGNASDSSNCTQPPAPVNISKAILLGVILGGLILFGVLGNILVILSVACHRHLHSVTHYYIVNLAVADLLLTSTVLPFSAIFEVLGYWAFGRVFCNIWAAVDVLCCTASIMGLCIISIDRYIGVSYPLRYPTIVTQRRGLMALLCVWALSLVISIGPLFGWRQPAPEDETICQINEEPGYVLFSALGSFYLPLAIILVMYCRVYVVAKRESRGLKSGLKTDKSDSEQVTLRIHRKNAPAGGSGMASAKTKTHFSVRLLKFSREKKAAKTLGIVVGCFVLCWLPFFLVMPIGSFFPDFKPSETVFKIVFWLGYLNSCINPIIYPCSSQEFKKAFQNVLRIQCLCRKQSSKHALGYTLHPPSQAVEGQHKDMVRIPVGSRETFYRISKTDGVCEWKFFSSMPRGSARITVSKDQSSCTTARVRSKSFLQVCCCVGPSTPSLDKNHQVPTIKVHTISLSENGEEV", "conditions": "InsPs accumulation assay; Blue et al., Table 1; cited from earlier work"}, "α1A-AR receptor [3]": {"molecular_target": "T1, α1A-AR receptor", "conditions": "FLIPR assay; Blue et al., Table 1; cited from earlier work"}, "[4]": {"tested_on": "patients with symptomatic neurogenic orthostatic hypotension", "assay": "Treatment of patients having nOH (Example 1)", "assay_type": "in vivo, human", "conditions": "5 mg oral tablets twice daily, follow-up after one week", "description": "Patients between the age of 40 and 80 years old that have been diagnosed with symptomatic orthostatic hypotension due to pure autonomic failure, multiple system atrophy or Parkinson's disease (i.e., PD plus symptoms) present for treatment. At the time of presentation, autonomic function testing is conducted to confirm the diagnosis of autonomic dysfunction including sinus arrhythmia and the Valsalva maneuver.\nThe patients are given 5 mg dabuzalgron oral tablets and are instructed to take one tablet shortly after waking up in the morning and a second tablet 4-6 hours later each day.\nSome patients return for a follow-up visit after one week of treatment. […] In the follow-up visit supine systolic blood pressure (SSBP) may be determined."}},
  "note": "Read-outs that look alike come from different tables or passages of the source.",
  "data": [
    {"smiles": "CNCC[C@@H](Oc1ccccc1C)c1ccccc1", "note": "[Atomoxetine]", "values": [
      {"measurement": "effect on blood pressure", "setting": "[1]", "result": "increase blood pressure"}
    ]},
    {"smiles": "Cc1c(OCC2=NCCN2)ccc(Cl)c1NS(C)(=O)=O.Cl", "note": "[RO 115-1240 (dabuzalgron) HCl salt, N-[6-chloro-3-(4,5-dihydro-1H-imidazol-2-ylmethoxy)-2-methylphenyl] methanesulfonamide hydrochloride]", "values": [
      {"measurement": "intrinsic activity as compared to noradrenaline", "setting": "α1A-AR receptor [2]", "result": 0.27},
      {"measurement": "intrinsic activity as compared to noradrenaline", "setting": "α1A-AR receptor [3]", "result": 0.51}
    ]},
    {"smiles": "Cc1c(OCC2=NCCN2)ccc(Cl)c1NS(C)(=O)=O", "note": "[RO 115-1240 (dabuzalgron) free base, N-[6-chloro-3-(4,5-dihydro-1H-imidazol-2-ylmethoxy)-2-methylphenyl] methanesulfonamide]", "values": [
      {"measurement": "intrinsic activity as compared to noradrenaline", "setting": "α1A-AR receptor [2]", "result": 0.31}
    ]},
    {"smiles": "Cc1c(OCC2=NCCN2)ccc(Cl)c1NS(C)(=O)=O", "note": "[dabulzagron, N-[6-chloro-3-(4,5-dihydro-1H-imidazol-2-ylmethoxy)-2-methylphenyl] methanesulfonamide]", "values": [
      {"measurement": "rise in SSBP compared with patients taking midodrine or droxidopa for nOH", "setting": "[4]", "result": "less that that observed in patients taking midodrine or droxidopa"},
      {"measurement": "rise in supine systolic blood pressure (SSBP)", "setting": "[4]", "result": "not experience a substantial rise in SSBP"},
      {"measurement": "symptoms of nOH as compared to the first visit before treatment", "setting": "[4]", "result": "improve"}
    ]}
  ]
}
